# Measurements as given in patent publication US12655116B2, “Substituted isophthalic acid diamides” (Bayer Aktiengesellschaft, priority 2020, dated 2026).
# What was measured:
# [1] = test system: ABUTH; assay: Pre-emergence herbicidal action against ABUTH; assay type: in vivo, Abutilon theophrasti
# How it was run: (§1)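 Seeds sown in sandy loam, soil-covered; compound sprayed on soil surface pre-emergence. Application: WP/EC, 600–800 l/ha, 0.2% wetting agent. Readout: visual % damage at 3 weeks.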
# [2] = test system: ALOMY; assay: Pre-emergence herbicidal action against ALOMY; assay type: in vivo, Alopecurus myosuroides; conditions: Alopecurus myosuroides, 504 h, pre-emergence
# How it was run: as §1
# [3] = test system: AMARE; assay: Pre-emergence herbicidal action against AMARE; assay type: in vivo, Amaranthus retroflexus
# How it was run: as §1
# [4] = test system: AVEFA; assay: Pre-emergence herbicidal action against AVEFA; assay type: in vivo, Avena fatua; conditions: 80 g/ha, pre-emergence
# How it was run: as §1
# [5] = test system: ECHCG; assay: Pre-emergence herbicidal action against ECHCG; assay type: in vivo, Echinochloa crus-galli
# How it was run: as §1
# [6] = test system: MATIN; assay: Pre-emergence herbicidal action against MATIN; assay type: in vivo, Matricaria inodora
# How it was run: as §1
# [7] = test system: POLCO; assay: Pre-emergence herbicidal action against POLCO; assay type: in vivo, Polygonum convolvulus; conditions: dosage 80 g/ha
# How it was run: as §1
# [8] = test system: SETVI; assay: Pre-emergence herbicidal action against SETVI; assay type: in vivo, Setaria viridis; conditions: dosage 80 g/ha
# How it was run: as §1
# [9] = test system: VIOTR; assay: Pre-emergence herbicidal action against VIOTR; assay type: in vivo, Viola tricolor
# How it was run: as §1
# [10] = test system: ABUTH; assay: Post-emergence herbicidal action against ABUTH; assay type: in vivo, Abutilon theophrasti; conditions: visual assessment about 3 weeks after treatment vs untreated controls
# How it was run: (§2)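 Sandy loam, greenhouse; treatment 2–3 weeks after sowing, one-leaf stage. Aqueous suspension or emulsion from WP/EC sprayed on foliage (600–800 l/ha, 0.2% wetting agent). Readout: visual % action, ~3 weeks.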
# [11] = test system: ALOMY; assay: Post-emergence herbicidal action against ALOMY; assay type: in vivo, Alopecurus myosuroides; conditions: dosage 20 g/ha, visual assessment about 3 weeks after treatment vs untreated controls
# How it was run: as §2
# [12] = test system: AMARE; assay: Post-emergence herbicidal action against AMARE; assay type: in vivo, Amaranthus retroflexus; conditions: 20 g/ha, visual assessment about 3 weeks after treatment, 100% = plants have died, 0% = like control plants
# How it was run: as §2
# [13] = test system: AVEFA; assay: Post-emergence herbicidal action against AVEFA; assay type: in vivo, Avena fatua; conditions: 20 g/ha, visual assessment about 3 weeks after treatment, 100% = plants have died, 0% = like control plants
# How it was run: as §2
# [14] = test system: ECHCG; assay: Post-emergence herbicidal action against ECHCG; assay type: in vivo, Echinochloa crus-galli; conditions: dosage 20 g/ha
# How it was run: as §2
# [15] = test system: MATIN; assay: Post-emergence herbicidal action against MATIN; assay type: in vivo, Matricaria inodora
# How it was run: as §2
# [16] = test system: PHBPU; assay: Post-emergence herbicidal action against PHBPU; assay type: in vivo, Pharbitis purpurea
# How it was run: as §2
# [17] = test system: SETVI; assay: Post-emergence herbicidal action against SETVI; assay type: in vivo, Setaria viridis; conditions: dosage 20 g/ha
# How it was run: as §2
# [18] = test system: VERPE; assay: Post-emergence herbicidal action against VERPE; assay type: in vivo, Veronica persica; conditions: 20 g/ha
# How it was run: as §2
# [19] = test system: VIOTR; assay: Post-emergence herbicidal action against VIOTR; assay type: in vivo, Viola tricolor
# How it was run: as §2
# [20] = test system: PHBPU; assay: Pre-emergence herbicidal action against PHBPU; assay type: in vivo, Pharbitis purpurea; conditions: dosage 80 g/ha
# How it was run: as §1
# [21] = test system: VERPE; assay: Pre-emergence herbicidal action against VERPE; assay type: in vivo, Veronica persica; conditions: dosage 80 g/ha
# How it was run: as §1
# [22] = test system: DIGSA; assay: Pre-emergence herbicidal action against DIGSA; assay type: in vivo, Digitaria sanguinalis
# How it was run: as §1
# [23] = test system: DIGSA; assay: Post-emergence herbicidal action against DIGSA; assay type: in vivo, Digitaria sanguinalis; conditions: 20 g/ha
# How it was run: as §2
# [24] = 80 g/ha, scored visually after 3 weeks vs untreated controls (100% = plants have died, 0% = like control plants)
# [25] = Tripleurospermum inodorum, 504 h, dosage 20 g/ha
# [26] = dosage 20 g/ha, scored visually after 3 weeks vs untreated controls, 100% = plants have died, 0% = like control plants
# [27] = 20 g/ha, scored visually after 3 weeks vs untreated controls, 100% = plants have died, 0% = like control plants
smiles,measurement,setting,value
CCn1nnnc1NC(=O)c1ccc(C(F)(F)F)c(C(=O)NC2CC2)c1SC [Example 2-83],pest or weed control at 80 g/ha,"[1]; Abutilon theophrasti, 504 h, 80 g/ha, scored visually after 3 weeks vs untreated controls (100% = plants have died, 0% = like control plants)",100%
same,pest or weed control at 20 g/ha,"[1]; Abutilon theophrasti, 504 h, dosage 20 g/ha, scored visually after 3 weeks vs untreated controls, 100% = plants have died, 0% = like control plants, read-out: Pre-emergence action against ABUTH (herbicidal activity in percent)",100%
same,pest or weed control at 80 g/ha,[2]; [24],90%
same,pest or weed control at 20 g/ha,"[2]; 20 g/ha, scored visually after 3 weeks, 100% = plants have died, 0% = like control plants",90%
same,pest or weed control at 20 g/ha,"[3]; Amaranthus retroflexus, 504 h, 20 g/ha, scored visually after 3 weeks vs untreated controls, 100% = plants have died, 0% = like control plants",100%
same,pest or weed control at 80 g/ha,"[3]; Amaranthus retroflexus, 504 h, 80 g/ha, scored visually after 3 weeks vs untreated controls, 100% = plants have died, 0% = like control plants",100%
same,pest or weed control at 80 g/ha,"[4]; Avena fatua, 504 h",90%
same,pest or weed control at 80 g/ha,"[5]; Echinochloa crus-galli, 504 h, 80 g/ha",90%
same,pest or weed control at 20 g/ha,[6]; [25],100%
same,pest or weed control at 80 g/ha,"[6]; Tripleurospermum inodorum, 504 h, dosage 80 g/ha",100%
same,pest or weed control at 80 g/ha,"[7]; Fallopia convolvulus, 504 h",90%
same,pest or weed control at 80 g/ha,"[8]; Setaria viridis, 504 h",100%
same,pest or weed control at 80 g/ha,"[9]; Viola tricolor, 504 h, dosage 80 g/ha",100%
same,pest or weed control at 5 g/ha,"[10]; Abutilon theophrasti, 504 h, dosage 5 g/ha",90%
same,pest or weed control at 20 g/ha,"[10]; Abutilon theophrasti, 504 h, dosage 20 g/ha",90%
same,pest or weed control at 20 g/ha,"[11]; Alopecurus myosuroides, 504 h",100%
same,pest or weed control at 20 g/ha,"[12]; Amaranthus retroflexus, 504 h",100%
same,pest or weed control at 20 g/ha,"[13]; Avena fatua, 504 h",90%
same,pest or weed control at 20 g/ha,"[14]; Echinochloa crus-galli, 504 h",90%
same,pest or weed control at 5 g/ha,"[15]; Tripleurospermum inodorum, 504 h, dosage 5 g/ha",80%
same,pest or weed control at 20 g/ha,[15]; [25],100%
same,pest or weed control at 20 g/ha,"[16]; Ipomoea purpurea, 504 h, dosage 20 g/ha",80%
same,pest or weed control at 20 g/ha,"[17]; Setaria viridis, 504 h",100%
same,pest or weed control at 20 g/ha,"[18]; Veronica persica, 504 h",80%
same,pest or weed control at 5 g/ha,"[19]; Viola tricolor, 504 h, 5 g/ha",80%
same,pest or weed control at 20 g/ha,"[19]; Viola tricolor, 504 h, 20 g/ha",80%
CCn1nnnc1NC(=O)c1ccc(C(F)F)c(C(=O)NCC(F)F)c1Br [Example 2-230],Pre-emergence action against ABUTH (herbicidal activity),[1]; [24],100%
same,Pre-emergence action against ABUTH (herbicidal activity in percent),[1]; [26],100%
same,Pre-emergence action against AMARE in %,[3]; [27],100%
same,Pre-emergence action against AMARE in %,[3]; [24],100%
same,Pre-emergence action against AVEFA in %,[4],80%
same,Pre-emergence action against ECHCG in %,[5]; 80 g/ha,90%
same,Pre-emergence action against MATIN in %,[6]; dosage 20 g/ha,90%
same,Pre-emergence action against MATIN in %,[6]; dosage 80 g/ha,100%
same,Pre-emergence action against PHBPU in %,[20],80%
same,Pre-emergence action against SETVI in %,[8],90%
same,Pre-emergence action against VERPE in %,[21],100%
same,Pre-emergence action against VIOTR in %,[9]; dosage 20 g/ha,90%
same,Pre-emergence action against VIOTR in %,[9]; dosage 80 g/ha,100%
same,Pre-emergence action against DIGSA in %,[22]; dosage 20 g/ha,100%
same,Pre-emergence action against DIGSA in %,[22]; dosage 80 g/ha,100%
same,Post-emergence action against ABUTH in %,[10]; dosage 20 g/ha,80%
same,Post-emergence action against ALOMY in %,[11],90%
same,Post-emergence action at 20 g/ha against AMARE in %,[12],100%
same,Post-emergence action at 20 g/ha against AVEFA in %,[13],80%
same,Post-emergence action against SETVI in %,[17],100%
same,Post-emergence action against VERPE in %,[18],90%
same,Post-emergence action against DIGSA,[23],90%
CCn1nnnc1NC(=O)c1ccc(C(F)(F)F)c(C(=O)NC(C)C2CC2)c1SC (centres unmarked) [Example 2-350],Pre-emergence action against ABUTH (herbicidal activity),[1]; [24],100%
same,Pre-emergence action against ABUTH (herbicidal activity in percent),[1]; [26],100%
same,Pre-emergence action against AMARE in %,[3]; [27],100%
same,Pre-emergence action against AMARE in %,[3]; [24],100%
same,Pre-emergence action against ECHCG in %,[5]; 20 g/ha,80%
same,Pre-emergence action against ECHCG in %,[5]; 80 g/ha,100%
same,Pre-emergence action against MATIN in %,[6]; dosage 20 g/ha,100%
same,Pre-emergence action against MATIN in %,[6]; dosage 80 g/ha,100%
same,Pre-emergence action against POLCO in %,[7],100%
same,Pre-emergence action against SETVI in %,[8],100%
same,Pre-emergence action against VERPE in %,[21],100%
same,Pre-emergence action against VIOTR in %,[9]; dosage 20 g/ha,100%
same,Pre-emergence action against VIOTR in %,[9]; dosage 80 g/ha,100%
same,Post-emergence action against ABUTH in %,[10]; dosage 20 g/ha,80%
same,Post-emergence action against ALOMY in %,[11],80%
same,Post-emergence action at 20 g/ha against AMARE in %,[12],100%
same,Post-emergence action at 20 g/ha against AVEFA in %,[13],90%
same,Post-emergence action against ECHCG in %,[14],100%
same,Post-emergence action against MATIN in %,[15]; dosage 5 g/ha,80%
same,Post-emergence action against MATIN in %,[15]; dosage 20 g/ha,90%
same,Post-emergence action against PHBPU in %,[16]; dosage 5 g/ha,80%
same,Post-emergence action against PHBPU in %,[16]; dosage 20 g/ha,80%
same,Post-emergence action against SETVI in %,[17],100%
same,Post-emergence action against VERPE in %,[18],80%
same,Post-emergence action against VIOTR in %,[19]; 5 g/ha,100%
same,Post-emergence action against VIOTR in %,[19]; 20 g/ha,100%
